# Results published in PubChem BioAssay (NCI).
#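 Values below derive from 48-hour exposures of cells grown in 96-well plates, with endpoints linearly interpolated between the two concentrations bracketing the appropriate inhibition level. The concentration for full growth arrest is given as TGI.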
# Tests used:
# Experiment in all cases: NCI anticancer screen, dose series, 48 h
# 786-0 renal = tested on: 786-0 renal
# A498 renal = tested on: A498 renal
# A549 NSCLC = tested on: A549 NSCLC
# ACHN renal = tested on: ACHN renal
# BT-549 breast = tested on: BT-549 breast
# CAKI-1 renal = tested on: CAKI-1 renal
# CCRF-CEM leukemia = tested on: CCRF-CEM leukemia
# COLO 205 colon = tested on: COLO 205 colon
# DU-145 prostate = tested on: DU-145 prostate
# EKVX NSCLC = tested on: EKVX NSCLC
# HCC-2998 colon = tested on: HCC-2998 colon
# HCT-116 colon = tested on: HCT-116 colon
# HCT-15 colon = tested on: HCT-15 colon
# HL-60(TB) leukemia = tested on: HL-60(TB) leukemia
# HOP-62 NSCLC = tested on: HOP-62 NSCLC
# HOP-92 NSCLC = tested on: HOP-92 NSCLC
# HS 578T breast = tested on: HS 578T breast
# HT29 colon = tested on: HT29 colon
# IGROV1 ovarian = tested on: IGROV1 ovarian
# K-562 leukemia = tested on: K-562 leukemia
# KM12 colon = tested on: KM12 colon
# LOX IMVI melanoma = tested on: LOX IMVI melanoma
# M14 melanoma = tested on: M14 melanoma
# MALME-3M melanoma = tested on: MALME-3M melanoma
# MCF7 breast = tested on: MCF7 breast
# MDA-MB-231 breast = tested on: MDA-MB-231 breast
# MDA-MB-435 = tested on: MDA-MB-435
# MDA-N = tested on: MDA-N
# MOLT-4 leukemia = tested on: MOLT-4 leukemia
# NCI-H23 lung = tested on: NCI-H23 lung
# NCI-H460 lung = tested on: NCI-H460 lung
# NCI-H522 lung = tested on: NCI-H522 lung
# NCI/ADR-RES ovarian = tested on: NCI/ADR-RES ovarian
# OVCAR-3 ovarian = tested on: OVCAR-3 ovarian
# OVCAR-4 ovarian = tested on: OVCAR-4 ovarian
# OVCAR-5 ovarian = tested on: OVCAR-5 ovarian
# OVCAR-8 ovarian = tested on: OVCAR-8 ovarian
# PC-3 prostate = tested on: PC-3 prostate
# RPMI-8226 leukemia = tested on: RPMI-8226 leukemia
# RXF 393 renal = tested on: RXF 393 renal
# SF-268 CNS = tested on: SF-268 CNS
# SF-295 CNS = tested on: SF-295 CNS
# SF-539 CNS = tested on: SF-539 CNS
# SK-MEL-2 melanoma = tested on: SK-MEL-2 melanoma
# SK-MEL-28 melanoma = tested on: SK-MEL-28 melanoma
# SK-MEL-5 melanoma = tested on: SK-MEL-5 melanoma
# SN12C renal = tested on: SN12C renal
# SNB-19 CNS = tested on: SNB-19 CNS
# SNB-75 CNS = tested on: SNB-75 CNS
# SR leukemia = tested on: SR leukemia
# SW-620 colon = tested on: SW-620 colon
# T-47D breast = tested on: T-47D breast
# TK-10 renal = tested on: TK-10 renal
# U251 CNS = tested on: U251 CNS
# UACC-257 melanoma = tested on: UACC-257 melanoma
# UACC-62 melanoma = tested on: UACC-62 melanoma
# UO-31 renal = tested on: UO-31 renal
# NCI-H226 lung = tested on: NCI-H226 lung
# SK-OV-3 ovarian = tested on: SK-OV-3 ovarian
smiles,measurement,setting,value
CCN1CCC(O)(c2ccc(Oc3ccccc3)cc2)C(C(=O)c2ccc(Oc3ccccc3)cc2)C1 (stereo unspecified),TGI,786-0 renal,18.7 µM
same,TGI,A498 renal,30.4 µM
same,TGI,A549 NSCLC,27.5 µM
same,TGI,ACHN renal,29.8 µM
same,TGI,BT-549 breast,22.5 µM
same,TGI,CAKI-1 renal,31.2 µM
same,TGI,CCRF-CEM leukemia,25.5 µM
same,TGI,COLO 205 colon,30 µM
same,TGI,DU-145 prostate,27.5 µM
same,TGI,EKVX NSCLC,36.9 µM
same,TGI,HCC-2998 colon,19.6 µM
same,TGI,HCT-116 colon,21.2 µM
same,TGI,HCT-15 colon,25.7 µM
same,TGI,HL-60(TB) leukemia,14.1 µM
same,TGI,HOP-62 NSCLC,25.3 µM
same,TGI,HOP-92 NSCLC,22.3 µM
same,TGI,HS 578T breast,78.1 µM
same,TGI,HT29 colon,26.4 µM
same,TGI,IGROV1 ovarian,33 µM
same,TGI,K-562 leukemia,> 100 µM
same,TGI,KM12 colon,18.9 µM
same,TGI,LOX IMVI melanoma,16.9 µM
same,TGI,M14 melanoma,26.3 µM
same,TGI,MALME-3M melanoma,34.6 µM
same,TGI,MCF7 breast,19.5 µM
same,TGI,MDA-MB-231 breast,30.2 µM
same,TGI,MDA-MB-435,26.2 µM
same,TGI,MDA-N,26.7 µM
same,TGI,MOLT-4 leukemia,32.1 µM
same,TGI,NCI-H23 lung,27.7 µM
same,TGI,NCI-H460 lung,13.2 µM
same,TGI,NCI-H522 lung,43.9 µM
same,TGI,NCI/ADR-RES ovarian,35.1 µM
same,TGI,OVCAR-3 ovarian,31.9 µM
same,TGI,OVCAR-4 ovarian,25.3 µM
same,TGI,OVCAR-5 ovarian,31.3 µM
same,TGI,OVCAR-8 ovarian,38.6 µM
same,TGI,PC-3 prostate,27.1 µM
same,TGI,RPMI-8226 leukemia,5.63 µM
same,TGI,RXF 393 renal,53.4 µM
same,TGI,SF-268 CNS,35.6 µM
same,TGI,SF-295 CNS,27.5 µM
same,TGI,SF-539 CNS,23.4 µM
same,TGI,SK-MEL-2 melanoma,30.1 µM
same,TGI,SK-MEL-28 melanoma,26.5 µM
same,TGI,SK-MEL-5 melanoma,25.7 µM
same,TGI,SN12C renal,29.5 µM
same,TGI,SNB-19 CNS,32.6 µM
same,TGI,SNB-75 CNS,28.9 µM
same,TGI,SR leukemia,24.8 µM
same,TGI,SW-620 colon,26.4 µM
same,TGI,T-47D breast,28.4 µM
same,TGI,TK-10 renal,27.3 µM
same,TGI,U251 CNS,24.2 µM
same,TGI,UACC-257 melanoma,26.3 µM
same,TGI,UACC-62 melanoma,25.9 µM
same,TGI,UO-31 renal,21.8 µM
COc1ccc2nc3cc(Cl)ccc3c(NCCNC(=O)Cn3c(=O)n(C)c(=O)c4c3nc3c(c(=O)n(C)c(=O)n3C)[n+]4[O-])c2c1,TGI,786-0 renal,> 100 µM
same,TGI,A498 renal,98.8 µM
same,TGI,A549 NSCLC,> 100 µM
same,TGI,ACHN renal,> 100 µM
same,TGI,BT-549 breast,49.1 µM
same,TGI,CAKI-1 renal,> 100 µM
same,TGI,CCRF-CEM leukemia,> 100 µM
same,TGI,COLO 205 colon,> 100 µM
same,TGI,DU-145 prostate,> 100 µM
same,TGI,EKVX NSCLC,> 100 µM
same,TGI,HCC-2998 colon,> 100 µM
same,TGI,HCT-116 colon,> 100 µM
same,TGI,HCT-15 colon,> 100 µM
same,TGI,HL-60(TB) leukemia,> 100 µM
same,TGI,HOP-62 NSCLC,50.8 µM
same,TGI,HOP-92 NSCLC,> 74.7 µM
same,TGI,HS 578T breast,71.2 µM
same,TGI,HT29 colon,> 65.1 µM
same,TGI,IGROV1 ovarian,61.6 µM
same,TGI,K-562 leukemia,> 100 µM
same,TGI,KM12 colon,> 100 µM
same,TGI,LOX IMVI melanoma,> 100 µM
same,TGI,M14 melanoma,> 100 µM
same,TGI,MALME-3M melanoma,> 100 µM
same,TGI,MCF7 breast,> 100 µM
same,TGI,MDA-MB-231 breast,> 100 µM
same,TGI,MDA-MB-435,> 69.5 µM
same,TGI,MDA-N,> 100 µM
same,TGI,MOLT-4 leukemia,> 90.8 µM
same,TGI,NCI-H226 lung,> 80.1 µM
same,TGI,NCI-H23 lung,56 µM
same,TGI,NCI-H460 lung,> 100 µM
same,TGI,NCI-H522 lung,> 74.6 µM
same,TGI,NCI/ADR-RES ovarian,> 95.8 µM
same,TGI,OVCAR-3 ovarian,> 100 µM
same,TGI,OVCAR-4 ovarian,> 100 µM
same,TGI,OVCAR-5 ovarian,> 100 µM
same,TGI,OVCAR-8 ovarian,57 µM
same,TGI,PC-3 prostate,> 100 µM
same,TGI,RPMI-8226 leukemia,> 100 µM
same,TGI,RXF 393 renal,> 100 µM
same,TGI,SF-268 CNS,60.8 µM
same,TGI,SF-295 CNS,> 100 µM
same,TGI,SF-539 CNS,> 65 µM
same,TGI,SK-MEL-2 melanoma,> 100 µM
same,TGI,SK-MEL-28 melanoma,> 31.6 µM
same,TGI,SK-MEL-5 melanoma,> 100 µM
same,TGI,SK-OV-3 ovarian,> 100 µM
same,TGI,SN12C renal,> 100 µM
same,TGI,SNB-19 CNS,> 77.9 µM
same,TGI,SNB-75 CNS,92.2 µM
same,TGI,SR leukemia,63.8 µM
same,TGI,SW-620 colon,> 71.7 µM
same,TGI,T-47D breast,> 100 µM
same,TGI,TK-10 renal,> 56.1 µM
same,TGI,U251 CNS,58.9 µM
same,TGI,UACC-257 melanoma,> 55.9 µM
same,TGI,UACC-62 melanoma,> 52.9 µM
same,TGI,UO-31 renal,> 100 µM
